The record followed here is patent US7935670B2, “Hepatitis C virus inhibitors” (Bristol-Myers Squibb Company, priority 2006, dated 2011).

Test [1] addresses T1, HCV NS3/4A protease complex, J4L6S strain (Hepatitis C virus genotype 1b, UniProt O92972, C1454S/C1711G).
T1 construct: DNA encoding the recombinant HCV NS3/4A protease complex (amino acids 1027 to 1711) for these strains; His tag (inferred from pET21b vector and Ni-NTA purification); made in house; host or cells: Escherichia coli BL21 (DE3), pET21b
Put plainly: FRET peptide assay to monitor HCV NS3/4A proteolytic activity (J4L6S strain). The test is classed as biochemical, HCV genotype 1b. An excerpt:
HCV NS3 protease complexes, derived from the BMS strain, H77 strain or J4L6S strain, were generated, as described below. These purified recombinant proteins were generated for use in a homogeneous assay (see below) to provide an indication of how effective compounds of the present disclosure would be in inhibiting HCV NS3 proteolytic activity.
Serum from an HCV-infected patient was obtained from Dr. T. Wright, San Francisco Hospital. An engineered full-length cDNA (compliment deoxyribonucleic acid) template of the HCV genome (BMS strain) was constructed from DNA fragments obtained by reverse transcription-PCR(RT-PCR) of serum RNA (ribonucleic acid) and using primers selected on the basis of homology between other genotype 1a strains. From the determination of the entire genome sequence, a genotype 1a was assigned to the HCV isolate according to the classification of Simmonds et al. (See P Simmonds, K A Rose, S Graham, S W Chan, F McOmish, B C Dow, E A Follett, P L Yap and H Marsden, J. Clin. Microbiol., 31(6), 1493-1503 (1993)). […]

In test [2] the target is T2, porcine pancreatic elastase (PPE) (Sus scrofa, UniProt P00772).
T2 construct: purchased Sigma
Description: Specificity assay, porcine pancreatic elastase. The test is classed as biochemical. The note with it: 2 h enzyme-inhibitor pre-incubation. The procedure: The specificities of compounds of the present disclosure were determined against a variety of serine proteases: human neutrophil elastase (HNE), porcine pancreatic elastase (PPE) and human pancreatic chymotrypsin and one cysteine protease: human liver cathepsin B. In all cases a 96-well plate format protocol using colorimetric p-nitroaniline (pNA) substrate specific for each enzyme was used as described previously (PCT Patent Application No. WO 00/09543) with some modifications to the serine protease assays. All enzymes were purchased from Sigma while the substrates were from Bachem.
Each assay included a 2 h enzyme-inhibitor pre-incubation at room temperature followed by addition of substrate and hydrolysis to ˜30% conversion as measured on a Spectramax Pro microplate reader. Compound concentrations varied from 100 to 0.4 μM depending on their potency.
50 mM Tris(hydroxymethyl)aminomethane hydrochloride (Tris-HCl) pH 8, 0.5 M Sodium Sulfate (Na2SO4), 50 mM NaCl, 0.1 mM EDTA, 3% DMSO, 0.01% Tween-20 with:
133 μM succ-AAA-pNA and 20 nM HNE or 8 nM PPE; 100 μM succ-AAPF-pNA and […] Chymotrypsin.
The percentage of inhibition was calculated using the formula: [1−((UVinh−UVblank)/(UVctl−UVblank))]×100
A non-linear curve fit was applied to the inhibition-concentration data, and the 50% effective concentration (IC50) was calculated by the use of Excel Xl-fit software.

Structures are written as SMILES.

T1 sequence (O92972 1027-1711 C1454S/C1711G, one chain of several): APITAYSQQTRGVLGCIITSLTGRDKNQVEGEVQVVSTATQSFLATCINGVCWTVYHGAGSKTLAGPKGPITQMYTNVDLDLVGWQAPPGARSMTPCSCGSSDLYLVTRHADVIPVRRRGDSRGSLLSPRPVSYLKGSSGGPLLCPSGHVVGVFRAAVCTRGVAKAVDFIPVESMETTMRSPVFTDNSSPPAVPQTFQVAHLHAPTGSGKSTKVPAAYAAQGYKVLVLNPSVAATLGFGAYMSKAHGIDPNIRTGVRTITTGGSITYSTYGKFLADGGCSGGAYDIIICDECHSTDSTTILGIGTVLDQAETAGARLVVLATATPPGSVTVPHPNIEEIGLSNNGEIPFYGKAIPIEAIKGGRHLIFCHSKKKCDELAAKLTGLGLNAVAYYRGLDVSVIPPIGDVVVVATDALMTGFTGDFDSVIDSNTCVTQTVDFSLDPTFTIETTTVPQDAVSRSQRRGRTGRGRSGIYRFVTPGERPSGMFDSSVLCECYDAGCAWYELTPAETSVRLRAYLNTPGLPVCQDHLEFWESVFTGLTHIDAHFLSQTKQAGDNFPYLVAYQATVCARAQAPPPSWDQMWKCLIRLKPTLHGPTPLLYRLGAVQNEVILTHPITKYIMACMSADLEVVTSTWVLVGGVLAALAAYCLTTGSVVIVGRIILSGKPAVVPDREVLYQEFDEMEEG
T2 sequence (P00772 27-266): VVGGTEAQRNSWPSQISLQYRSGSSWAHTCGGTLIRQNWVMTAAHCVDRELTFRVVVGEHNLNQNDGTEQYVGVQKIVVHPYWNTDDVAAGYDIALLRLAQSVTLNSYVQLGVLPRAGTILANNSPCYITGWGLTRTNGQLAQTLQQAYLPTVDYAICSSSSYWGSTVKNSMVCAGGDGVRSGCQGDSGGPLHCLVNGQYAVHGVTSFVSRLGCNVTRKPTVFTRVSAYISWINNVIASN

In the case of `C=C[C@@H]1C[C@]1(NC(=O)[C@@H]1C[C@@H](OC(=O)c2ccccc2)CN1C(=O)[C@@H](NC(=O)OC(C)(C)C)C(C)(C)C)C(=O)NS(=O)(=O)C1CC1` [Compound 1], the values for the IC50 in test [1] and in test [2] were 2.5 nM and above 200 µM, respectively.
